Test results as given in patent US20230055237A1, “COMPOUNDS AND METHODS FOR THE TREATMENT OF CYSTIC FIBROSIS” (Flatley Discovery Lab, LLC, priority 2019, published 2023).

Target: T1, CFTR (Homo sapiens, UniProt P13569, DEL508-508)
T1 construct: Primary CF airway epithelial cells were obtained from the UNC Cystic Fibrosis Tissue Procurement and Cell Culture Core; host or cells: primary CF airway epithelial cells, differentiated at the air-liquid interface
Experiment: Equivalent current assay in primary CF airway epithelial cells (NAUC, combination with 1st site corrector FDL169 or VX-809)
Format: cell-based
Settings: 37° C., 24 h
Description: Primary CF airway epithelial cells were obtained from the UNC Cystic Fibrosis Tissue Procurement and Cell Culture Core. The cells are grown at 37° C. in a Heracell 150i incubator using growth media (BEGM, Fischer). […] Two days before the Ussing assay the mucus on the apical surface of the cells was aspirated after incubating with 200 μL of differentiation media for at least thirty (30) minutes. One day before the Ussing assay test compounds were added to the basolateral surface of the cells at various test concentrations dissolved in DMSO. Duplicate wells were prepared giving a n=3 or n=4 protocol.
Cells were treated for 24 hours with various combinations and concentrations of the test articles, reference standard (3 μM VX809 or 3 μM FDL169, positive control). Compounds stock solutions were prepared in DMSO and diluted 1/1000 into ALI media to their final assay concentration. Cells were treated with combination solutions (2 mL of each dilution) and incubated at 37° C. for 24 h.
For the equivalent current assay, cells on four Transwell (24-well) plates were treated. Each Transwell plate was filled with 200 μl of HBS on the apical surface and 2 ml on the basolateral surface. Plates were placed horizontally in a heated mount at 37° C., and equilibrated for several minutes. Resting current was measured for 15 min and then blocked by the apical addition of 5 μM benzamil. After 20 min, 10 μM forskolin and 1 μM VX770 were added to both the apical and basolateral side to stimulate CFTR. An increase in chloride current is seen as an upward deflection of the trace.
The raw data, current vs. time for the Ussing chamber (sampling interval: 10 s) and voltage vs. time and resistance vs. time for the equivalent current assay (sampling interval: 5 minutes) were transferred to Excel (Microsoft Office Professional, version 14.0.7106.5003) for analysis. […] This average is equivalent to the sum of the average forskolin activated and the average VX770-potentiated currents. The average current measured in vehicle (0.1% DMSO) treated cells, Iv, was subtracted from the current for the test article, ITA, or from the corrector reference standard VX809 (3 uM ISTD). For replicate measurements, the average vehicle subtracted response for the test article, was normalized to the average vehicle subtracted inhibitor response of the reference corrector VX809 (3 μM).
A second endpoint, for the equivalent current assay, evaluated was NAUC, the normalized area under the curve (AUC) measuring the response after addition of forskolin and VX770 to the time point right before the addition of the CFTR inhibitor. The AUC is effectively the average response multiplied by the duration of the response.
NAUCTA=[AUCTA−AUCV,ave]/[AUCVx809r,ave−AUCV,ave] (Equation 2).
Experiments were run with a minimum of n=4 replicates per concentration. Since the distribution for the ratio of two normal distributions is a Cauchy distribution, the median value must be used for the average and the average deviation must be used for the error of all normalized data.
E=Emin+(Emax−Emin)/(1+10^((LogEC5OS)*nH)) (Equation 3)

[1] = test compound 10 μM in combination with 1st site corrector VX-809 (3 μM)
[2] = test compound 1 μM in combination with 1st site corrector VX-809 (3 μM)
[3] = test compound 3 μM in combination with 1st site corrector VX-809 (3 μM)

T1 sequence (P13569 with tags, fused parts or gaps DEL508-508): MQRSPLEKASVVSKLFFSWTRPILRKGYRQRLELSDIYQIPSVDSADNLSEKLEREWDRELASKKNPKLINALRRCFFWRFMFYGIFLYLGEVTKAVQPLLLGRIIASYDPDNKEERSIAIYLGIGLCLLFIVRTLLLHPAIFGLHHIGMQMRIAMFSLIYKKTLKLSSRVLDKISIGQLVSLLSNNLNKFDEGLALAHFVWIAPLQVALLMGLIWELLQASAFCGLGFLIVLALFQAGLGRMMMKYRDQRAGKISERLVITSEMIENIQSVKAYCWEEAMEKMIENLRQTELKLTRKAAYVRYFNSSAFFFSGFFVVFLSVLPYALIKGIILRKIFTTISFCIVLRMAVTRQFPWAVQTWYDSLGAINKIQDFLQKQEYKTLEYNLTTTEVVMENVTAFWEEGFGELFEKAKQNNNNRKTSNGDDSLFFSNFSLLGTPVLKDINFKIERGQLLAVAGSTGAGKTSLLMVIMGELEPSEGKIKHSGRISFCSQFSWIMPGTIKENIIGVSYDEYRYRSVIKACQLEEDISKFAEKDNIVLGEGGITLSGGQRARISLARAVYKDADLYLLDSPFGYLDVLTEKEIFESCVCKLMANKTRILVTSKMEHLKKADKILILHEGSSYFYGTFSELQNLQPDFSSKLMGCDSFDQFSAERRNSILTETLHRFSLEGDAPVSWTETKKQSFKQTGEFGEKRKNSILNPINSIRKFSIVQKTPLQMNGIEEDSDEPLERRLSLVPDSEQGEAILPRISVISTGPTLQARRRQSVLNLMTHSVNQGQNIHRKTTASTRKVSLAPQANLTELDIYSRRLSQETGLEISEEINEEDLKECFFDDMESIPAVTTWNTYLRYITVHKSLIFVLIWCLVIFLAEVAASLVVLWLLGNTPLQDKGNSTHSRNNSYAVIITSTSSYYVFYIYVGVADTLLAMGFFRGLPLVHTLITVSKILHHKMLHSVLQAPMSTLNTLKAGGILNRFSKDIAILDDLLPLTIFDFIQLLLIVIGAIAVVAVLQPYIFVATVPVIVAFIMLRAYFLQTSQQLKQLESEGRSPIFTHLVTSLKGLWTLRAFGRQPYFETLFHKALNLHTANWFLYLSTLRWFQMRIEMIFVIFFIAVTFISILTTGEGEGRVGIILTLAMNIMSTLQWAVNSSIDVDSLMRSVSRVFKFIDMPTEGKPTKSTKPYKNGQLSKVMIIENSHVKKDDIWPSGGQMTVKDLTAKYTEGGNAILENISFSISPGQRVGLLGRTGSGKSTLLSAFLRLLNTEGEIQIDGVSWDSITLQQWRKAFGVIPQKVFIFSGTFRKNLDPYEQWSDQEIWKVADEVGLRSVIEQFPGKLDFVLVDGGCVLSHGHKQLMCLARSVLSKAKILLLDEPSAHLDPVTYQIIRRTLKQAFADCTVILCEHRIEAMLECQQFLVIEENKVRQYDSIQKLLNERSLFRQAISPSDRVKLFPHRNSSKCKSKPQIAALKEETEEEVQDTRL

SMILES | Nauc @ 10 μM [1] | Nauc @ 1 μM [2] | Nauc @ 3 μM [3] | Nauc @ 1 μM (test compound 1 μM in combination with 1st site corrector FDL169 (3 μM)) | Nauc @ 3 μM (test compound 3 μM in combination with 1st site corrector FDL169 (3 μM)) | Nauc @ 10 μM (test compound 10 μM in combination with 1st site corrector FDL169 (3 μM))
O=C(Nc1cc(Cl)cc(Cl)c1)C1C(C(F)(F)c2cccc(Cl)c2)NC2(C(=O)Nc3c(Cl)cc(Cl)cc32)C1C(=O)O (stereo not shown) [Example 68.b] | + (NAUC “+” refers to an observed NAUC <140% of positive control) | – | – | – | – | –
CN(O)C(=O)[C@@H]1[C@@H](C(=O)N(C)c2cc(Cl)cc(Cl)c2)[C@H]2CC(F)(F)CN2[C@]12C(=O)Nc1c(Cl)cc(Cl)cc12 [Example 260b, (1′R,2′R,3R,7a′R)-5,7-dichloro-N1′-(3,5-dichlorophenyl)-6′,6′-difluoro-N2′-hydroxy-N1′,N2′-dimethyl-2-oxo-1′,2′,5′,6′,7′,7a′-hexahydrospiro[indoline-3,3′-pyrrolizine]-1′,2′-dicarboxamide] | + (NAUC “+” refers to an observed NAUC <140% of positive control) | + (NAUC “+” refers to an observed NAUC <140% of positive control) | + (NAUC “+” refers to an observed NAUC <140% of positive control) | – | – | –
O=C(Nc1cc(Cl)cc(Cl)c1)C1C(C(F)(F)c2ccccc2C(F)(F)F)NC2(C(=O)Nc3c(Cl)cc(Cl)cc32)C1C(=O)O (stereo not shown) [Example 69.b] | ++ (NAUC “++” refers to an observed NAUC 170-140% of positive control) | ++ (NAUC “++” refers to an observed NAUC 170-140% of positive control) | +++ (NAUC “+++” refers to an observed NAUC>170% of positive control) | – | – | –
C[C@]1(O)C[C@@H]2[C@H](C(=O)Nc3cc(Cl)cc(Cl)c3)[C@H](C(N)=O)[C@@]3(C(=O)Nc4c(Cl)cc(Cl)cc43)N2C1 [Example 244, (1′R,2′S,6′S,7a′R)-5,7-dichloro-N1′-(3,5-dichlorophenyl)-6′-hydroxy-6′-methyl-2-oxo-1′,2′,5′,6′,7′,7a′-hexahydrospiro[indoline-3,3′-pyrrolizine]-1,2′-dicarboxamide] | + (NAUC “+” refers to an observed NAUC <140% of positive control) | + (NAUC “+” refers to an observed NAUC <140% of positive control) | + (NAUC “+” refers to an observed NAUC <140% of positive control) | – | – | –
CN(C(=O)C1C2N(CCC2(F)F)C2(C(=O)Nc3c(Cl)cc(Cl)cc32)C1C(=O)O)c1cc(Cl)cc(Cl)c1 (single isomer, unassigned) [Example 268b, 5,7-dichloro-1′-((3,5-dichlorophenyl)(methyl)carbamoyl)-7′,7′-difluoro-2-oxo-1′,2′,5′,6′,7′,7a′-hexahydrospiro[indoline-3,3′-pyrrolizine]-2′-carboxylic acid] | – | +++ (NAUC “+++” refers to an observed NAUC>170% of positive control) | +++ (NAUC “+++” refers to an observed NAUC>170% of positive control) | – | – | –
COc1cc(C(F)(F)F)cc(NC(=O)C2C3CC(F)(F)CN3C3(C(=O)Nc4c(Cl)cc(Cl)cc43)C2C(=O)O)n1 (single isomer, unassigned) [Example 80.7b.2, 5,7-dichloro-6′,6′-difluoro-1′-((6-methoxy-4-(trifluoromethyl)pyridin-2-yl)carbamoyl)-2-oxo-1′,2′,5′,6′,7′,7a′-hexahydrospiro[indoline-3,3′-pyrrolizine]-2′-carboxylic acid] | + (NAUC “+” refers to an observed NAUC <140% of positive control) | – | – | – | – | –
CN1C(=O)[C@]2(c3cc(Cl)cc(Cl)c31)[C@@H](C(=O)O)[C@@H](C(=O)N(CC1CC1)c1cc(Cl)cc(Cl)c1)[C@H]1CC(F)(F)CN12 [Example 202] | – | – | – | ++ (NAUC “++” refers to an observed NAUC 170-140% of positive control) | ++ (NAUC “++” refers to an observed NAUC 170-140% of positive control) | + (NAUC “+” refers to an observed NAUC <140% of positive control)
